The test system of series [1] is centrilobular necrosis. Nature of the series: APAP-NSG liver injury model dose test. The note with it: NSG mice, 24 h after injection.
Series [2] has as its system APAP-induced liver injury. Description: Acetaminophen-induced liver injury in male and female C57BL/6J mice.
Experimental: Images from stained sections were visualized and measured at 40× magnification on ImageJ™ (FIJI) using the area measurement tool. 2-3 lobes were measured and averaged per mouse.
Series [3] concerns APAP-induced liver injury. The format is in vivo. The note with it: for survival: GH 2.5 mg/kg or NAC 1000 mg/kg 8 hours post-APAP. The procedure: Acetaminophen-induced liver injury mouse model.
GH and NAC were both diluted in sterile PBS. GH was diluted to a concentration of 1 mg/mL and given at dosage indicated, subcutaneously with a 0.5 mL insulin syringe. NAC was diluted to a concentration of 50 mg/mL and given at 1000 mg/kg dosage, intraperitoneally with a 1 mL insulin syringe.
The statistical analyses for the graphs were carried out using two-sided student's t test for unpaired comparisons with GraphPad Prism™. The statistical analyses for the Kaplan-Meier survival curves were carried out using the Log-rank Mantel-Cox test with GraphPad Prism. A p value<0.05 was considered significant, ***<0.0001, **<0.001, *<0.05, n.s. or no result=not significant.

The conditions of series [4]: intravenous NAC; cited from earlier work.
Series [5] deals with Tg(fabp10a:CFP-NTR) larvae. Description: Zebrafish NTR/Mtz hepatocyte ablation model of BEC-driven liver regeneration. The note with it: for size of regenerating livers: 2 μM, treatment from A0h to R24h. The text has this: a. […] In the Tg(fabp10a:CFP-NTR)^5931 zebrafish line, bacterial nitroreductase (NTR) is expressed under the hepatocyte-specific fabp10a promoter^2. Since the NTR enzyme converts the non-toxic prodrug, metronidazole (Mtz), into a cytotoxic drug^59, 60 treating the transgenic zebrafish with Mtz specifically ablates hepatocytes. In this model, upon severe hepatocyte loss, BECs first dedifferentiate into LPCs, then re-differentiate into either hepatocytes or BECs, thereby leading to full liver recovery^2.
b. […] Upon targeted chemical screening using the NTR/Mtz model^61, the inventors examined the effect of VEGFR2 inhibition on BEC-driven liver regeneration. The inventors used the Notch reporter line Tg(Tp1:H2B-mCherry)^939 that expresses H2B-mCherry fusion proteins in BECs.
c. […] Given that VEGFR2 functions via at least two major signaling branches, PI3K/AKT and MEK/ERK1/2, the inventors tested which downstream branch controls BEC-driven liver regeneration using their specific inhibitors (LY294002 for PI3K and U0126 for MEK1/2). […] Given the well-known cascade of PI3K-AKT-mTOR, the inventors further examined mTOR activity in the regenerating livers.

The subject of series [6] is BEC-driven liver regeneration. The note with it: earlier chemical screen of the inventors; cited from earlier work.
In series [7] the test system is BEC-driven liver regeneration. Description: BEC-driven liver regeneration in zebrafish hepatocyte ablation model Tg(fabp10a:CFP-NTR) with Mtz. The format is in vivo. The procedure:
Experiments on zebrafish: All zebrafish experiments were performed under the approval of the IACUC at the University of Pittsburgh. Embryos and adult fish were raised and maintained under standard laboratory conditions. The following transgenic lines were used: Tg(fabp10a:CFP-NTR)s931, Tg(Tp1:H2B-mCherry)s939, Tg(hs:sflt1)bns80, Tg(Tp1:CreERT2)s959, and Tg(hs:loxP-mCherry-loxP-hVEGFA)mn32.
Hepatocyte ablation using the Tg(fabp10a:CFP-NTR) line: Hepatocyte ablation was performed by treating Tg(fabp10a:CFP-NTR) larvae with 10 mM Mtz in egg water supplemented with 0.2% DMSO and 0.2 mM 1-phenyl-2-thiourea from 3.5 to 5 dpf for 36 hours, as previously described^9.
SU5416 treatment: SU5416 (MedChemExpress, Monmouth Junction, NJ) was used at 1.5 μM.
Heat-shock conditions for zebrafish larvae: Both Tg(hs:sflt1) and Tg(hs:loxP-mCherry-loxP-hVEGFA) larvae were heat-shocked by transferring them into egg water pre-warmed to 38.5° C. and keeping them at this temperature for 20 minutes, as previously described^10.
Whole-mount in situ hybridization and immunostaining in zebrafish: Whole-mount in situ hybridization was performed, as previously described^11, with gc^12 and f5 probes. […]
Quantification of Bhmt+ cell number and Bhmt+ area in the zebrafish liver: For the quantification of Bhmt+ cell number, confocal projection images consisting of 6 optical-section images, with 3-μm interval, were used. Bhmt+ and Tp1:H2B-mCherry+ cells were manually counted; the number of Bhmt/Tp:H2B-mCherry double-positive cells was divided by the number of Tp1:H2B-mCherry+ cells. For the quantification of Bhmt+ liver area, confocal projection images showing Bhmt and fabp10a:CFP-NTR expression were used. Both Bhmt^+ and fabp10a:CFP-NTR+ areas in the liver were calculated by ImageJ and the former area was divided by the latter.
Image acquisition, processing, and statistical analysis of zebrafish data: Zeiss LSM700 confocal and Leica MZ16 microscopes were used to obtain image data. Confocal stacks were analyzed using the Zen 2009 software. […] Quantitative data were shown as mean±standard error of the mean (SEM).

Series [8] in a line: b-estradiol treatment of males in APAP liver injury, serum ALT. The class given is in vivo, mouse. The note with it: IP 0.5 mg/kg in corn oil, 24 hours following APAP injection.
Series [9] concerns liver sex-biased genes. The note with it: rat GH 25 ng/g BW/hr by minipump, male mice; cited from earlier work.

Where two headings read alike, the source gives them in different places.

With `CC(=O)Nc1ccc(O)cc1` [APAP, acetyl-para-aminophenol], the liver damage entry in [1] (200 mg/Kg) was “mild”. The liver damage result in series [1] (400 mg/kg) was “severe damage and ultimately death”. Besides, in [2] (400 mg/kg), the “necrosis (H&E), males vs females” value is “more extensive in male livers and progressively increased overtime, whereas female livers fully recovered by 48 hours”; the “serum bilirubin, males vs females” value was “persisted for 96 hours in males but decreased after 48 hours in females”. The injury and lethality result in series [2] (400 mg/kg intraperitoneally, both sexes) is recorded as “induces injury in both sexes without lethality up to 96 hours”. The “serum ALT levels, males vs females” value in series [2] (400 mg/kg, time points post-24 hours) is “consistently higher in males than in females”.

Regarding `CC(=O)N[C@@H](CS)C(=O)O` [NAC, N-acetyl cysteine], the survival result in [3] (females) is “all females survived regardless of the treatment”; in series [3] (males, 48 hours post-APAP) it was “all NAC-treated males died by 48 hours post-APAP”. Besides, the necrotic tissue entry in [3] (females, NAC 1000 mg/kg) is “did not show the beneficial effect of reducing necrotic tissue”. Moreover, in [3] (males that survived 24 hours post-APAP, NAC 1000 mg/kg), the necrotic areas result was “significantly diminished”. For the same molecule, the “apoptotic TUNEL+ area” value in series [3] (males, 24 hours post-APAP) is listed as “significantly diminished”. Moreover, the “patients with anaphylactoid reaction” value in series [4] is reported as “up to 18%”.

`CN(C)c1ccc(/C=C2\C(=O)Nc3ccccc32)cc1` [SU4312]: the “size of regenerating livers” value in series [5] and in [6] was “significantly reduced the size of regenerating livers” each time. For the same molecule, in [6], the “induction of early hepatocyte markers Prox1 and HNF4α in BEC-derived LPCs” value is recorded as “did not affect”.

`Cc1cc(C)c(/C=C2\C(=O)Nc3ccccc32)[nH]1` [SU5416]: the “LPC-to-hepatocyte differentiation defect by gc and f5 expression” value in [7] (R24h) was “This defect was confirmed”. Besides, the “expression of the hepatocyte marker Bhmt” value in [7] (R24h, SU5416 from A18h to R24h) is “greatly suppressed the expression of the hepatocyte marker Bhmt”; in series [5] (R24h), “almost no expression”. The “size of regenerating livers” value in series [7] (SU5416 1.5 μM from A18h to R24h), in series [5] and in series [6] was “significantly reduced the size of regenerating livers” in each case. For the same molecule, the “expression of Prox1 and Hnf4a in LPCs” value in series [5] (R6h) is “normal expression of Prox1 and Hnf4a”. In addition, in series [5] (R6h regenerating livers), the “pS6 expression in LPCs (mTORC1 activation)” value is “absent”. In addition, the “expression of fabp10a:CFP-NTR” value in [5] (R24h) is “very weak expression”. For the same molecule, the “induction of early hepatocyte markers Prox1 and HNF4α in BEC-derived LPCs” value in series [6] was “did not affect”.

Take `C[C@]12CC[C@@H]3c4ccc(O)cc4CC[C@H]3[C@@H]1CC[C@@H]2O` [b-estradiol]: in [8], the ALT levels result was “significantly decreased ALT levels”.

B1: cGH: rat recombinant GH given by continuous infusion via osmotic minipump (protein, UniProt P01244 27-216, looked up)
Somatotropin: FPAMPLSSLFANAVLRAQHLHQLAADTYKEFERAYIPEGQRYSIQNAQAAFCFSETIPAPTGKEEAQQRTDMELLRFSLLLIQSWLGPVQFLSRIFTNSLMFGTSDRVYEKLKDLEEGIQALMQELEDGSPRIGQILKQTYDKFDANMRSDDALLKNYGLLSCFKKDLHKAETYLRVMKCRRFAESSCAF
Take B1: the “liver sex-biased genes whose expression is feminized” value in [9] is on record as 92%.

These data come from US12371666B2, “Nucleoside modified mRNA and uses thereof” (BOSTON MEDICAL CENTER CORPORATION, priority 2021, dated 2025).
